The values below come from PubChem BioAssay (NCI).

The structures appear in SMILES notation.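 How tested: cells in 96-well plates exposed to compound for 48 hours at five concentrations. TGI denotes the concentration required for complete inhibition of growth.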 A value given as a limit tells only on which side of the number the result lay.

Test systems include NCI/ADR-RES ovarian; MDA-MB-435; HT29 colon; RPMI-8226 leukemia; PC-3 prostate; MDA-MB-231 breast; NCI-H23 lung; NCI-H460 lung; RXF 393 renal; HCT-15 colon; SW-620 colon; OVCAR-3 ovarian; SF-268 CNS; MOLT-4 leukemia; SK-MEL-28 melanoma; HL-60(TB) leukemia; SNB-75 CNS; SN12C renal; SK-MEL-2 melanoma.
Holding throughout (assay): NCI-60 cell line screen, 48 h

As to `CC(=O)N(CCCCNC(=O)C(F)(F)F)CCCNC(=O)C(F)(F)F`, the TGI in the test with NCI/ADR-RES ovarian, in the test with MDA-MB-435, in the test on HT29 colon, in the test on RPMI-8226 leukemia, in the test on PC-3 prostate and with MDA-MB-231 breast was greater than 100 µM throughout. Also, the TGI with NCI-H23 lung, in the test with NCI-H460 lung, in the test with RXF 393 renal, in the test with HCT-15 colon, in the test on SW-620 colon and with OVCAR-3 ovarian was greater than 100 µM each time. Also, the TGI in the test with SF-268 CNS, with MOLT-4 leukemia, in the test with SK-MEL-28 melanoma, with HL-60(TB) leukemia, in the test with SNB-75 CNS and in the test on SN12C renal was greater than 100 µM in each case. In the test on SK-MEL-2 melanoma, this compound had a TGI greater than 100 µM.
In the case of `COc1ccc(/C=C2\N=C(c3ccccc3)OC2=O)cc1OC(C)=O`, the TGI with NCI/ADR-RES ovarian, with MDA-MB-435, with HT29 colon, in the test on RPMI-8226 leukemia, in the test with PC-3 prostate and with MDA-MB-231 breast was greater than 100 µM in each case. Besides, the TGI with NCI-H23 lung, with NCI-H460 lung, in the test with RXF 393 renal, in the test on HCT-15 colon, with SW-620 colon and in the test with OVCAR-3 ovarian was greater than 100 µM each time. For the same compound, the TGI in the test with SF-268 CNS was greater than 100 µM; with MOLT-4 leukemia, 26.1 µM; with SK-MEL-28 melanoma it was greater than 100 µM; with HL-60(TB) leukemia it was greater than 100 µM; in the test with SNB-75 CNS, greater than 100 µM; with SN12C renal, greater than 100 µM. For the same compound, in the test with SK-MEL-2 melanoma, the TGI is 83.5 µM.
Turning to `CCOC(=O)C1=C(c2ccccc2)N(C(C)=O)Cc2ccccc21`, the TGI is 33.8 µM in the test on HT29 colon; 38.7 µM in the test with RPMI-8226 leukemia; 34.5 µM in the test with NCI-H23 lung; 41.3 µM with NCI-H460 lung; 68.2 µM with RXF 393 renal; greater than 100 µM in the test on HCT-15 colon. The TGI is greater than 100 µM with SW-620 colon; 43.2 µM in the test on OVCAR-3 ovarian; 64.8 µM in the test with SF-268 CNS; 34.8 µM in the test on MOLT-4 leukemia; 36.6 µM with SK-MEL-28 melanoma; 37.5 µM with HL-60(TB) leukemia. The TGI in the test with SNB-75 CNS stood at 77.1 µM; in the test with SN12C renal, 77.1 µM; with SK-MEL-2 melanoma, 38.2 µM.
For the compound `CCSc1nnc(-c2ccccc2)nc1Cc1ccc(OC)cc1`, the TGI in the test with HT29 colon, in the test with RPMI-8226 leukemia, with NCI-H23 lung, with NCI-H460 lung, with RXF 393 renal and in the test on HCT-15 colon was greater than 100 µM in each case. Further, the TGI with SW-620 colon, with OVCAR-3 ovarian, in the test with SF-268 CNS, in the test on MOLT-4 leukemia, in the test with SK-MEL-28 melanoma and in the test on HL-60(TB) leukemia was greater than 100 µM throughout. Also, the TGI in the test on SNB-75 CNS, with SN12C renal and in the test with SK-MEL-2 melanoma was greater than 100 µM in each case.
For `O=S(=O)(Oc1ccc2ccccc2c1-c1c(OS(=O)(=O)C(F)(F)F)ccc2ccccc12)C(F)(F)F`, the TGI in the test on NCI/ADR-RES ovarian, with MDA-MB-435, in the test on HT29 colon, in the test with RPMI-8226 leukemia, in the test with PC-3 prostate and with MDA-MB-231 breast was greater than 100 µM each time. For the same compound, the TGI in the test on NCI-H23 lung, with NCI-H460 lung, in the test with RXF 393 renal, in the test on HCT-15 colon, in the test with SW-620 colon and with OVCAR-3 ovarian was greater than 100 µM each time. The TGI in the test with SF-268 CNS, in the test on MOLT-4 leukemia, with SK-MEL-28 melanoma, in the test on HL-60(TB) leukemia, in the test with SNB-75 CNS and in the test on SK-MEL-2 melanoma was greater than 100 µM each time.
Turning to `N#CC1CCCCC1NC1(C#N)CCCCC1` (stereo not given), the TGI in the test with HT29 colon, in the test with RPMI-8226 leukemia, in the test with NCI-H23 lung, in the test with RXF 393 renal, with HCT-15 colon and in the test on SW-620 colon was greater than 100 µM each time. For the same compound, the TGI in the test on OVCAR-3 ovarian, in the test with SF-268 CNS, in the test on MOLT-4 leukemia, in the test with SK-MEL-28 melanoma, in the test with HL-60(TB) leukemia and in the test with SNB-75 CNS was greater than 100 µM throughout. Besides, the TGI in the test on SN12C renal and in the test on SK-MEL-2 melanoma was greater than 100 µM each time.
Turning to `C[N+]1(C)C[C@@H](O)C[C@@H]1C(=O)[O-]`, the TGI with HT29 colon, with RPMI-8226 leukemia, with NCI-H23 lung, with NCI-H460 lung, in the test on RXF 393 renal and in the test on HCT-15 colon was greater than 100 µM each time. The TGI in the test with SW-620 colon, with OVCAR-3 ovarian, in the test with SF-268 CNS, in the test on MOLT-4 leukemia, in the test with SK-MEL-28 melanoma and in the test on HL-60(TB) leukemia was greater than 100 µM throughout. In addition, the TGI in the test on SNB-75 CNS, in the test with SN12C renal and in the test with SK-MEL-2 melanoma was greater than 100 µM throughout.
Regarding `CCOC(=O)CC(NCc1ccc(N=Cc2nc3ccc(C(F)(F)F)cc3nc2-c2ccccc2)cc1)C(=O)OCC` (stereo not given), the TGI in the test with HT29 colon was greater than 100 µM; with RPMI-8226 leukemia, greater than 100 µM; in the test on NCI-H23 lung it was greater than 100 µM; with NCI-H460 lung, greater than 100 µM; with RXF 393 renal it was 56 µM; with HCT-15 colon, greater than 100 µM. Moreover, the TGI in the test with SW-620 colon, in the test with OVCAR-3 ovarian, in the test with SF-268 CNS, with MOLT-4 leukemia, with SK-MEL-28 melanoma and in the test on HL-60(TB) leukemia was greater than 100 µM throughout. Moreover, the TGI with SNB-75 CNS was greater than 77 µM; in the test with SN12C renal, greater than 100 µM; in the test on SK-MEL-2 melanoma, greater than 73.3 µM.
